Experimental data as given in patent publication US6916812B2, “Alpha-aminoamide derivatives as melanocortin agonists” (Bristol-Myers Squibb Company, priority 2001, dated 2005).

Molecular target: T1, cloned human MC4R (Homo sapiens, UniProt P32245)
T1 construct: made in house; host or cells: Hi5 insect cells (baculovirus infection); membrane preparation
Test: Membrane binding assay: competitive inhibition of [125I]NDP-α-MSH binding
Details: for IC50: read-out: MC4R IC50

[1] = at 10 μM, [125I]NDP-α-MSH displacement

T1 sequence (P32245 whole entry): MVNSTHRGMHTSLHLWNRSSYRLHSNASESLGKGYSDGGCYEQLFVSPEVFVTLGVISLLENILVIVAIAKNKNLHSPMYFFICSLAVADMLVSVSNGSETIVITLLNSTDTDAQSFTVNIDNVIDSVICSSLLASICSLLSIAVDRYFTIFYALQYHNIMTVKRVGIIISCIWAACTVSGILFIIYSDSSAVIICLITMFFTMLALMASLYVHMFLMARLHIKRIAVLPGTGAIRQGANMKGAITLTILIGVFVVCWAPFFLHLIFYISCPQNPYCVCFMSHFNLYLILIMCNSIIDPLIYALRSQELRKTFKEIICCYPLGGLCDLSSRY

SMILES	Displacement Rate (%) (at 10 μM) [1]	IC50	inhibition at 10 µM (at 10 μM, [125I]NDP-α-MSH displacement, read-out: Displacement Rate (%) (at 10 μM))
Cc1cccc(COc2ccc(C[C@H](N)C(=O)N3CCN(Cc4cccc(Cl)c4Cl)CC3)cc2)c1 [Example 213]	+++ (+++ = 91-100)	< 1.5 µM	
N[C@@H](Cc1ccc(OCc2ccccc2-c2ccccc2)cc1)C(=O)N1CCN(Cc2cccc(Cl)c2Cl)CC1 [Example 214]	+++ (+++ = 91-100)	< 1.5 µM	
N[C@@H](Cc1ccc(OCc2ccccc2Cc2ccccc2)cc1)C(=O)N1CCN(Cc2cccc(Cl)c2Cl)CC1 [Example 215]	+++ (+++ = 91-100)	< 1.5 µM	
Cc1ccccc1COc1ccc(C[C@H](N)C(=O)N2CCN(Cc3cccc(Cl)c3Cl)CC2)cc1 [Example 216]	+++ (+++ = 91-100)	1.5 to 3 µM	
N[C@@H](Cc1ccc(OCc2ccc3ccccc3c2)cc1)C(=O)N1CCN(Cc2cccc(Cl)c2Cl)CC1 [Example 217]	+++ (+++ = 91-100)	< 1.5 µM	
N[C@@H](Cc1ccc(OCc2cccc3ccccc23)cc1)C(=O)N1CCN(Cc2cccc(Cl)c2Cl)CC1 [Example 218]	+++ (+++ = 91-100)	1.5 to 3 µM	
N[C@@H](Cc1ccc(OCc2ccc(Cl)c([N+](=O)[O-])c2)cc1)C(=O)N1CCN(Cc2cccc(Cl)c2Cl)CC1 [Example 219]	+++ (+++ = 91-100)	< 1.5 µM	
CCc1ccc(COc2ccc(C[C@H](N)C(=O)N3CCN(Cc4cccc(Cl)c4Cl)CC3)cc2)cc1 [Example 220]	+++ (+++ = 91-100)	< 1.5 µM	
CCOc1ccccc1COc1ccc(C[C@H](N)C(=O)N2CCN(Cc3cccc(Cl)c3Cl)CC2)cc1 [Example 221]	+++ (+++ = 91-100)	1.5 to 3 µM	
N[C@@H](Cc1ccc(OCc2c(F)cccc2Cl)cc1)C(=O)N1CCN(Cc2cccc(Cl)c2Cl)CC1 [Example 222]	+++ (+++ = 91-100)	1.5 to 3 µM	
N[C@@H](Cc1ccc(OCc2ccc([N+](=O)[O-])cc2)cc1)C(=O)N1CCN(Cc2cccc(Cl)c2Cl)CC1 [Example 223]	+++ (+++ = 91-100)	1.5 to 3 µM	
CSc1ccc(COc2ccc(C[C@H](N)C(=O)N3CCN(Cc4cccc(Cl)c4Cl)CC3)cc2)cc1 [Example 224]	++ (++ = 71-90)	1.5 to 3 µM	
COc1ccc(COc2ccc(C[C@H](N)C(=O)N3CCN(Cc4cccc(Cl)c4Cl)CC3)cc2)cc1 [Example 225]	++ (++ = 71-90)	> 3 µM	
N[C@@H](Cc1ccc(OCc2c(Cl)cccc2Cl)cc1)C(=O)N1CCN(Cc2cccc(Cl)c2Cl)CC1 [Example 226]	++ (++ = 71-90)	1.5 to 3 µM	
COc1ccc(OC)c(COc2ccc(C[C@H](N)C(=O)N3CCN(Cc4cccc(Cl)c4Cl)CC3)cc2)c1 [Example 227]	++ (++ = 71-90)	> 3 µM	
COc1ccc(COc2ccc(C[C@H](N)C(=O)N3CCN(Cc4cccc(Cl)c4Cl)CC3)cc2)c(OC)c1 [Example 228]	++ (++ = 71-90)	> 3 µM	
N[C@@H](Cc1ccc(OCc2cc3c(cc2[N+](=O)[O-])OCO3)cc1)C(=O)N1CCN(Cc2cccc(Cl)c2Cl)CC1 [Example 229]	++ (++ = 71-90)	> 3 µM	
CCCCOc1ccc(COc2ccc(C[C@H](N)C(=O)N3CCN(Cc4cccc(Cl)c4Cl)CC3)cc2)cc1 [Example 230]	++ (++ = 71-90)	1.5 to 3 µM	
COc1ccccc1COc1ccc(C[C@H](N)C(=O)N2CCN(Cc3cccc(Cl)c3Cl)CC2)cc1 [Example 231]	++ (++ = 71-90)	> 3 µM	
N[C@@H](Cc1ccc(OCc2c3ccccc3cc3ccccc23)cc1)C(=O)N1CCN(Cc2cccc(Cl)c2Cl)CC1 [Example 232]	++ (++ = 71-90)	> 3 µM	
COc1cccc(COc2ccc(C[C@H](N)C(=O)N3CCN(Cc4cccc(Cl)c4Cl)CC3)cc2)c1OC [Example 233]	+ (+ = 35-70)	> 3 µM	
COc1ccc(COc2ccc(C[C@H](N)C(=O)N3CCN(Cc4cccc(Cl)c4Cl)CC3)cc2)cc1OC [Example 234]	+ (+ = 35-70)	> 3 µM	
N[C@@H](Cc1ccc(OCc2ccc3c(c2)OCO3)cc1)C(=O)N1CCN(Cc2cccc(Cl)c2Cl)CC1 [Example 235]	+ (+ = 35-70)	> 3 µM	
COc1cc(COc2ccc(C[C@H](N)C(=O)N3CCN(Cc4cccc(Cl)c4Cl)CC3)cc2)cc(OC)c1OC [Example 236]	+ (+ = 35-70)		
Cc1ccccc1CCOc1ccc(C[C@H](N)C(=O)N2CCN(Cc3cccc(Cl)c3Cl)CC2)cc1 [Example 237]	+++ (+++ = 91-100)	< 1.5 µM	
N[C@@H](Cc1ccc(OCCc2ccccc2)cc1)C(=O)N1CCN(Cc2cccc(Cl)c2Cl)CC1 [Example 238]	+++ (+++ = 91-100)	< 1.5 µM	

SMILES	Displacement Rate (%) (at 10 μM) [1]	IC50	inhibition at 10 µM (at 10 μM, [125I]NDP-α-MSH displacement, read-out: Displacement Rate (%) (at 10 μM))
Cc1ccc(CCOc2ccc(C[C@H](N)C(=O)N3CCN(Cc4cccc(Cl)c4Cl)CC3)cc2)cc1 [Example 239]	+++ (+++ = 91-100)	< 1.5 µM	
N[C@@H](Cc1ccc(OCCc2cccc(F)c2)cc1)C(=O)N1CCN(Cc2cccc(Cl)c2Cl)CC1 [Example 240]	+++ (+++ = 91-100)	< 1.5 µM	
N[C@@H](Cc1ccc(OCCc2ccc(Br)cc2)cc1)C(=O)N1CCN(Cc2cccc(Cl)c2Cl)CC1 [Example 241]	+++ (+++ = 91-100)	< 1.5 µM	
N[C@@H](Cc1ccc(OCCc2ccccc2Cl)cc1)C(=O)N1CCN(Cc2cccc(Cl)c2Cl)CC1 [Example 242]	+++ (+++ = 91-100)	< 1.5 µM	
COc1cccc(CCOc2ccc(C[C@H](N)C(=O)N3CCN(Cc4cccc(Cl)c4Cl)CC3)cc2)c1 [Example 243]		< 1.5 µM	91 to 100%
N[C@@H](Cc1ccc(OCCc2cccc3ccccc23)cc1)C(=O)N1CCN(Cc2cccc(Cl)c2Cl)CC1 [Example 244]	+++ (+++ = 91-100)	< 1.5 µM	
N[C@@H](Cc1ccc(OCCc2ccc(Cl)cc2)cc1)C(=O)N1CCN(Cc2cccc(Cl)c2Cl)CC1 [Example 245]	+++ (+++ = 91-100)	< 1.5 µM	
N[C@@H](Cc1ccc(OCCc2ccc(Cl)cc2Cl)cc1)C(=O)N1CCN(Cc2cccc(Cl)c2Cl)CC1 [Example 246]	+++ (+++ = 91-100)	< 1.5 µM	
N[C@@H](Cc1ccc(OCCc2ccc(F)cc2)cc1)C(=O)N1CCN(Cc2cccc(Cl)c2Cl)CC1 [Example 247]	+++ (+++ = 91-100)	< 1.5 µM	
N[C@@H](Cc1ccc(OCCc2cccc(Br)c2)cc1)C(=O)N1CCN(Cc2cccc(Cl)c2Cl)CC1 [Example 248]	+++ (+++ = 91-100)	< 1.5 µM	
N[C@@H](Cc1ccc(OCCc2cccc(Cl)c2)cc1)C(=O)N1CCN(Cc2cccc(Cl)c2Cl)CC1 [Example 249]	+++ (+++ = 91-100)	< 1.5 µM	
N[C@@H](Cc1ccc(OCCc2cccc(OCc3ccccc3)c2)cc1)C(=O)N1CCN(Cc2cccc(Cl)c2Cl)CC1 [Example 250]	+++ (+++ = 91-100)	< 1.5 µM	
N[C@@H](Cc1ccc(OCCc2ccc(OCc3ccccc3)cc2)cc1)C(=O)N1CCN(Cc2cccc(Cl)c2Cl)CC1 [Example 251]	+++ (+++ = 91-100)	< 1.5 µM	
N[C@@H](Cc1ccc(OCCc2ccccc2OCc2ccccc2)cc1)C(=O)N1CCN(Cc2cccc(Cl)c2Cl)CC1 [Example 252]	+++ (+++ = 91-100)	< 1.5 µM	
N[C@@H](Cc1ccc(OCCc2ccccc2-c2ccccc2)cc1)C(=O)N1CCN(Cc2cccc(Cl)c2Cl)CC1 [Example 253]	+++ (+++ = 91-100)	< 1.5 µM	
COc1ccc(CCOc2ccc(C[C@H](N)C(=O)N3CCN(Cc4cccc(Cl)c4Cl)CC3)cc2)cc1 [Example 254]	+++ (+++ = 91-100)	< 1.5 µM	
N[C@@H](Cc1ccc(OCCc2cccc(C(F)(F)F)c2)cc1)C(=O)N1CCN(Cc2cccc(Cl)c2Cl)CC1 [Example 255]	+++ (+++ = 91-100)	< 1.5 µM	
N[C@@H](Cc1ccc(OCCc2ccc3ccccc3c2)cc1)C(=O)N1CCN(Cc2cccc(Cl)c2Cl)CC1 [Example 256]	+++ (+++ = 91-100)	< 1.5 µM	
N[C@@H](Cc1ccc(OCCc2cccc([N+](=O)[O-])c2)cc1)C(=O)N1CCN(Cc2cccc(Cl)c2Cl)CC1 [Example 257]	+++ (+++ = 91-100)	1.5 to 3 µM	
N[C@@H](Cc1ccc(OCCc2ccc([N+](=O)[O-])cc2)cc1)C(=O)N1CCN(Cc2cccc(Cl)c2Cl)CC1 [Example 258]	++ (++ = 71-90)	> 3 µM	
COc1ccc(CCOc2ccc(C[C@H](N)C(=O)N3CCN(Cc4cccc(Cl)c4Cl)CC3)cc2)cc1OC [Example 259]	+ (+ = 35-70)	> 3 µM	
N[C@@H](Cc1ccc(OCCCc2ccc(OCc3ccccc3)cc2)cc1)C(=O)N1CCN(Cc2cccc(Cl)c2Cl)CC1 [Example 260]	+++ (+++ = 91-100)	< 1.5 µM	
N[C@@H](Cc1ccc(OCCCc2ccccc2)cc1)C(=O)N1CCN(Cc2cccc(Cl)c2Cl)CC1 [Example 261]	+++ (+++ = 91-100)	< 1.5 µM	
N[C@@H](Cc1ccc(OCCCCc2ccccc2)cc1)C(=O)N1CCN(Cc2cccc(Cl)c2Cl)CC1 [Example 262]	+++ (+++ = 91-100)	< 1.5 µM	
CC(CCOc1ccc(C[C@H](N)C(=O)N2CCN(Cc3cccc(Cl)c3Cl)CC2)cc1)c1ccccc1 (some centres unmarked) [Example 263]	+++ (+++ = 91-100)	< 1.5 µM	
